Source: patent publication US11065211B2, “Isoxylitones mediated neurogenesis” (priority 2018, dated 2021)

Assays:
Assay type in all cases: cell-based, rat
Cocul-HP cells = assay: AlamarBlue proliferation assay; conditions: 24 h, FIG. 4
Method: (§1) Wistar rats (150-200 gm) were used to isolate bone marrow (BM). Rats were sacrificed and their femurs were removed aseptically. The bone marrow (BM) was flushed from the shaft of the bone by clipping of the epiphysial ends and flushing using a 26-gauge needle with ˜2 ml of Dulbecco's Modified Eagle's medium (DMEM) supplemented with 5% FBS, 1% penicillin/streptomycin solution, 1% sodium pyruvate and L-glutamine. The BM was then centrifuged for 8 minutes at 1000 rpm. Following centrifugation, cell pellet was collected and 1 ml of fresh DMEM was added. The cell viability was checked using trypan blue exclusion method. The cells were then divided into three equal parts. One part was co-cultured with freshly isolated hippocampal cells in T75 cm^2 flask, 2nd with freshly isolated cortical cells and the third portion (BM cells only) was cultured as a control. The cell density for co-cultures was set at 140,000 cells/ml for each type of culture. The cultured flasks were then incubated at 37° C. and 5% CO2. After 4-5 days, floating hematopoietic cells and dead debris/tissues of hippocampus and cortex were removed and bone marrow stromal cells (BMSCs) were recovered due to their tendency to adhere. Medium was replaced after every 3 to 4 days till cells became 80-90% confluent.
(§2) AlamarBlue (AB), a water-soluble dye having resazurin salt was used to evaluate the effect of isoxylitones on the proliferation of the cultured cells. AB measures mitochondrial reductase activity of live cells. The resazurin has ability to enter the cytosol of viable cell and converted to the reduced fluorescent form resorufin by mitochondrial enzyme activity by accepting electrons from NADPH, FADH, FMNH, NADH as well as from the cytochromes. […] The amount of fluorescence produced is proportional to the number of living cells (Al-Nasiry, Geusens, Hanssens, Luyten, Pijnenborg, 2007). […] After incubation, the fluorescence intensity in each well was recorded at an excitation wavelength of 570 nm and an emission wavelength of 600 nm. The rate of cell proliferation was expressed as the relative fluorescence intensity. […] The blank media fluorescence measurement was subtracted from fluorescence measurements of cells from the same run.
(§3) Formula used to calculate the percentage reduction of AB using absorbance readings:
(§4) [formula] Where: O1=molar extinction coefficient (E) of oxidized alamarBlue® (Blue) at 570 nm O2=E of oxidized alamarBlue® at 600 nm A1=absorbance of test wells at 570 nm A2=absorbance of test wells at 600 nm P1=absorbance of positive growth control well (cells plus alamarBlue® but no test agent) at 570 nm P2=absorbance of positive growth control well (cells plus alamarBlue® but no test agent at 600 nm

Cocul-CTX cells = assay: AlamarBlue proliferation assay; conditions: 24 h, FIG. 4
Method: as §1, §2, §3, §4

[1] = test system: hypoxic hippocampal cells; assay: In-vitro model of hypoxic pre-conditioning; conditions: 2 h hypoxia then treatment at various concentrations, vs positive control hypoxic cells, FIG. 7
Method: In-vitro model of hypoxic cells was established by hypoxia chamber, which contain 5% carbon dioxide, 1% oxygen and 94% nitrogen. Isolated cortical and hippocampal cells from 1-2 days old rat pups were cultured in 75 cm flask in DMEM medium, after culturing cells were plated on 96 well plate at 7000-8000 viable cells per well and incubated in hypoxia chamber for 2 hour at 37° C. for hypoxic conditioning or oxygen deprivation. Following hypoxic shock, medium was replaced with fresh complete medium. Only cells without hypoxia were kept in normal condition as a control group while untreated hypoxic cells were kept as a positive control cells. Following two hours hypoxia the treatment of isoxylitones at various doses was given to hypoxic cells and MTT assay was used to determine the viability of cells in all treated and control cells. The absorbance of the plate was read by spectrophotometer at 570 nm wavelength.

hippocampal cells = assay: AlamarBlue proliferation assay; conditions: 24 h treatment, vs control, FIG. 3
Excerpt: (§5) AlamarBlue (AB), a water-soluble dye having resazurin salt was used to evaluate the effect of isoxylitones on the proliferation of the cultured cells. AB measures mitochondrial reductase activity of live cells. The resazurin has ability to enter the cytosol of viable cell and converted to the reduced fluorescent form resorufin by mitochondrial enzyme activity by accepting electrons from NADPH, FADH, FMNH, NADH as well as from the cytochromes. The redox reaction is accompanied by a change in color of the culture medium from blue to fluorescent red (Al-Nasiry, Geusens, Hanssens, Luyten, Pijnenborg, 2007). The amount of fluorescence produced is proportional to the number of living cells (Al-Nasiry, Geusens, Hanssens, Luyten, Pijnenborg, 2007). The cultured hippocampal, cortical and co-cultures were plated in 96-well plates (10,000 cells/well) and incubated for 24 hrs at 37° C. and 5% CO2. […] After incubation, the fluorescence intensity in each well was recorded at an excitation wavelength of 570 nm and an emission wavelength of 600 nm. The rate of cell proliferation was expressed as the relative fluorescence intensity. […] The blank media fluorescence measurement was subtracted from fluorescence measurements of cells from the same run.
(§6) Formula used to calculate the percentage reduction of AB using absorbance readings: […]

cortical cells = assay: AlamarBlue proliferation assay; conditions: 24 h treatment, vs control, FIG. 3
Excerpt: as §5, §6

[2] = test system: cortical cells and hippocampal cells; assay: MTT assay, in vitro screening of compounds for cell proliferation activity; conditions: 24 hrs treatment
Excerpt: The Tetrazolium MTT [3-(4, 5-dimethyl thiazol-2-yl)-2,5-diphenyl tetrazolium bromide] Assay: MTT assay was used to screen various compounds for their proliferating effect on cortical cells and hippocampal cells. The principle of MTT test is based on the ability of live cells to form insoluble purple formazan product from the breakdown of the water soluble yellow tetrazolium salt by mitochondrial enzyme succinate dehydrogenase (Mosmann, 1983). The resulting intracellular purple formazan can quantify by spectrophotometric means. The MTT Cell Proliferation Assay measures the cell proliferation rate and conversely, when metabolic events lead to apoptosis or necrosis, the reduction in cell viability.
The density of the cortical and hippocampal cells was adjusted at the density 2×10^5 cells/mL in complete DMEM medium (5% FBS). The cells (5000/well) were then plated in 96-wells plate and incubated for 24 hrs at 37° C. with 5% CO2. Following 24 hrs incubation, media was removed and 100 μL of each test compounds in DMEM media (5% FBS) were added. […] The culture plates were re-incubated for 24 hrs at 37° C. in 5% CO2. Cells treated with 0.1% DMSO in complete media (5% FBS) were used as vehicle controls. […] The absorbance was read at 495 nm on spectrophotometer. […] The percent rate of proliferation was calculated using the following formula, % rate of proliferation={(At−Ab)/(Ac−Ab)}×100

## CC(=O)C=C1C=C(C)CC(C)(C)C1 (mixture of isomers) [isoxylitones]
Cocul-HP cells
  highest proliferative dose: 150 µg/mL
Cocul-HP cells; various doses
  growth proliferation (Alamar blue): dose dependent growth proliferative effect
Cocul-CTX cells
  highest proliferative dose: 150 µg/mL
Cocul-CTX cells; various doses
  growth proliferation (Alamar blue): dose dependent growth proliferative effect
[1]
  recovery of hypoxic cells (phase-contrast morphology): Recovery of hypoxic cells clearly observed
Hippocampal cells
  proliferation (Alamar blue): growth supportive and proliferative effect
Cortical cells
  proliferation (Alamar blue): growth supportive and proliferative effect
[2]
  activity on the cell proliferation (MTT screening): significant potent activity
